The record followed here is a melting point compilation (Tetko et al.).

One may read the melting point as the temperature of the solid-liquid transition.

`CCCCCCCCCCN(CCCCCCCCCC)CCCCCCCCCC`: the melting point is -5 to -3 °C. The value for `C12C3C4C1C1C2C3C41` (stereo not drawn) was 126 °C. `CC(CC(=O)OOC(C)(C)C)CC(C)(C)C` (stereo not drawn): the melting point was -30 °C. The compound `COc1ccccc1NC(=O)c1cnc(C(C)(C)C)c(Cl)n1` showed a melting point of 118 to 119 °C. The value for `O=C(O)c1csc(-c2ccncc2)n1` was 304 to 307 °C; that for `CC1=NN(c2ccccc2)C(=O)C1Cc1ccc(O)cc1` (stereo not drawn) was 210 °C; that for `NCc1csc2ccc(Br)cc12` was 37 to 38 °C. With `O=[N+]([O-])c1ccc(Sc2ccc(N=C=S)cc2)cc1`, the melting point lay in the range of 124 to 126 °C.

In turn, `Oc1cc(Cl)cc(Cl)c1O` returned a melting point of 82.5 °C. `COc1ccc(C2C3=C(CC(C)(C)CC3=O)Nc3ccc4ccccc4c32)cc1` (stereo not drawn) showed a melting point of 288 °C.

For the compound `C[Si]1(c2ccccc2)O[Si](C)(c2ccccc2)O[Si](C)(c2ccccc2)O1` (stereo not drawn), the melting point is 100 °C. For `Brc1cccc(Br)c1`, the melting point was -7 °C. The value for `NC(=O)c1ccc(C(N)=O)cc1` was 332 °C; that for `Brc1cccc(N2CCOCC2)n1` was 50 to 51 °C; that for `O=C1C(=O)c2ccccc2CCc2ccccc21` was 132 °C. The value for `CC(=O)OCCBr` was -13.8 °C; that for `COc1cc2c(c3oc(=O)c4c(c13)CCC4=O)C1C=COC1O2` (stereo not drawn) was 268 to 269 °C; that for `CN1C(=O)CN=C(c2ccccc2F)c2cc([N+](=O)[O-])ccc21` was 166 °C. With `COc1c(F)cc(CBr)cc1F` the figure was 41 °C; with `CC1(C)C2CCC1(C)C(NC(=O)c1ccccc1)C2NC(=O)c1ccccc1` (stereo not drawn), 148 °C.

As to `Fc1c(F)c(F)c(P(c2ccccc2)c2c(F)c(F)c(F)c(F)c2F)c(F)c1F`, the melting point amounted to 61.5 °C. Regarding `CCOC(=O)c1sc(-c2cccc(N)c2)nc1C`, the melting point was found to be 84 °C. With `Cc1cc(C)c(C)c(I)c1C` the figure was 79 °C; with `CC1(C)C2CCC1(C)C(O)C2C(c1ccccc1)c1ccccc1` (stereo not drawn), 171 °C. The value for `OCc1cccc(Oc2ccccn2)c1` was 57 to 59 °C.

Take `CCCCCCCCOc1ccc(NC(=O)c2ccc(CC)cc2)cc1`: the melting point was 143 °C. The value for `Cc1ccc(Br)nc1` was 43 °C.

`CSC(SC)=C(C#N)C(=O)c1cccc(C)c1` gave a melting point of 53 to 55 °C. The value for `CC(=O)Oc1ccc(C2(c3ccc(OC(C)=O)cc3)Oc3ccccc3NC2=O)cc1` was 190 °C; that for `c1ccc2c(-c3cccc4ccccc34)cccc2c1` was 160 °C; that for `CCOC(=O)CC1Sc2ccccc2NC1=O` (stereo not drawn) was 126 to 128 °C. The value for `NNc1c2ccccc2nc2ccccc12` was 177 °C. The compound `Cc1nc(Cl)nc(N)c1N` came in with a melting point of 249 to 252 °C.

For `CS(=O)(=O)c1ccccc1C(=O)O`, the melting point turned out to be 139 °C. The value for `Nc1ccc(Cl)cc1C(F)(F)F` was 9 °C; that for `COc1ccc(F)c(O)c1F` was 75 °C. The value for `C=CC(=O)OCCCCO` was -112 °C; that for `Cc1c(Cl)cc([N+](=O)[O-])cc1Cl` was 63 to 64 °C; that for `CC(=O)OC1CCCCC1` was -65 °C. The compound `CC(=O)NC1=NC(=O)C(=Cc2cc(=O)c3ccccc3o2)N1C` displayed a melting point of 244 to 246 °C.

`CCOCCC(=O)OCC` displayed a melting point of -75 °C. With `O=C(Cl)c1sc(Br)c2c1OCCO2` the figure was 154 to 155 °C. With `COC(=O)CCC(C)C1CCC2C3C(OC(C)=O)CC4CC(OC(C)=O)CCC4(C)C3CCC12C` (stereo not drawn), the melting point lay within 185 to 186 °C.
